# Measurements reported in article PMC4865847, “Putative histidine kinase inhibitors with antibacterial effect against multi-drug resistant clinical isolates identified by in vitro and in silico screens” (Scientific Reports, 2016).
# Like-named read-outs stand apart in the source and are kept apart here.
# Experiments:
# Staphylococcus aureus = test: Antibacterial susceptibility testing (MIC/MBC), S. aureus; assay type: cell-based; settings: Staphylococcus aureus
# Protocol: (§1) Minimal inhibitory concentrations (MICs) were determined following a standard double-dilution method. […] For S. pneumoniae MICs were determined by adapting the standard double-dilution method to anaerobic conditions and of this microorganism (use of Todd Hewitt Yeast extract with 200 U/mL of catalase and continuous monitoring of growth).
# S. aureus PhoR (PhoR^S) = S. aureus PhoR (PhoR^S) (Staphylococcus aureus, UniProt Q2FXN7); test: In vitro autophosphorylation kinase assay with γ-32P-ATP, PhoR^S; assay type: biochemical; settings: for IC50: autophosphorylation, one time point (30 sec), 10% DMSO; for inhibition at 2000 µM: read-out: inhibition of PhoR^S autophosphorylation
# Protocol: (§2) To evaluate the inhibitory capacity of selected hits from DSF, SBVS and LBSS in vitro autophosphorylation kinase assays with γ-^32P-ATP were performed as previously described. Ligands were dissolved in 100% DMSO. […] Controls lacking ligands contained an equal concentration of DMSO. Inhibition of autophosphorylation was determined by incubating 0.12 mg/ml (≈4 μM) HK and up to 20 mM fragment in kinase buffer (50 mM Tris HCl, pH 8.5, 50 mM KCl, 5 mM MgCl2, 0.5 mM EDTA and 0.1 mM DTT). Autophosporylation reactions were initiated by addition of 0.1 μCi/μl γ-^32P-ATP containing from 0.03 to 0.06 μM ATP (final concentrations). Autophosphorylation was quenched with 2xSDS-PAGE sample buffer supplemented with 50 mM EDTA. Samples were applied without heating to 15% (w/v) Tris-glycine SDS-polyacrylamide gels. After electrophoresis, the bottoms of the gels were removed to lower the background from the unincorporated radiolabeled ATP. Gels were dried without staining on a Bio-Rad Gel Air drying system and the phosphorylated protein was quantified by phosphor-imaging. Prism GraphPad was used for curve fitting and statistical analysis.
# E. coli PhoR (PhoR^E) = biological target: T1, E. coli PhoR (PhoR^E) (Escherichia coli, UniProt P08400); test: In vitro autophosphorylation kinase assay with γ-32P-ATP, PhoR^E; assay type: biochemical; settings: for inhibition at 2000 µM: 2 mM, 30 sec, compared to negative control; for IC50: autophosphorylation, one time point (30 sec), 10% DMSO
# T1 construct: The catalytic portion (DHp and CA domain) of E. coli PhoR (PhoR^E); made in house; host or cells: E. coli RIL
# Protocol: as §2, with “Samples were applied without heating to 15% (w/v) Tris-glycine SDS-polyacrylamide gels.” left out
# Escherichia coli = test: Antibacterial susceptibility testing (MIC/MBC), E. coli; assay type: cell-based; settings: Escherichia coli, read-out: MIC E. coli CFT 073
# Protocol: as §1
# [1] = test system: Staphylococcus epidermidis; test: Antibacterial susceptibility testing (MIC/MBC), S. epidermidis; assay type: cell-based; settings: Staphylococcus epidermidis
# Protocol: as §1
# S. pneumoniae WalK = biological target: T2, S. pneumoniae WalK (Streptococcus pneumoniae, UniProt Q8DPL8); test: In vitro autophosphorylation kinase assay with γ-32P-ATP, WalK; assay type: biochemical; settings: autophosphorylation, one time point (30 sec), 10% DMSO
# T2 construct: WalK (amino acids from 208 to 449); N-terminal His6-3C site of vector pOPINF (own knowledge of the vector); made in house; host or cells: E. coli RIL
# Protocol: as §2, with “Samples were applied without heating to 15% (w/v) Tris-glycine SDS-polyacrylamide gels.” left out
# [2] = DSM20231, strain DSM 20231, read-out: MIC S. aureus DSM 20231
# [3] = DSM20044, strain DSM 20044, read-out: MIC S. epidermidis DSM 20044
# Chain of S. aureus PhoR (PhoR^S) (Q2FXN7 entry or part of it): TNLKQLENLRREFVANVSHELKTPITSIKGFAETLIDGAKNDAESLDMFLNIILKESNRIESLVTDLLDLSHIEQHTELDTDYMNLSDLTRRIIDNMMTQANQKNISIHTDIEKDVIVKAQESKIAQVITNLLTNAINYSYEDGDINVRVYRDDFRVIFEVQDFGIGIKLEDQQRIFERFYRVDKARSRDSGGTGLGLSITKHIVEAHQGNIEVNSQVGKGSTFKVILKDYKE
# T1 sequence (P08400 210-425): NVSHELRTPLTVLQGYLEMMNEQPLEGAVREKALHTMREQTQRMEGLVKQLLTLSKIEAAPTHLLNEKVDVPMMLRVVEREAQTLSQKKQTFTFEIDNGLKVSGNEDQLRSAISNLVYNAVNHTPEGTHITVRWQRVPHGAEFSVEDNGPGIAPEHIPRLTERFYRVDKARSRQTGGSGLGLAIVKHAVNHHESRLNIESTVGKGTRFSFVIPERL
# T2 sequence (Q8DPL8 208-449): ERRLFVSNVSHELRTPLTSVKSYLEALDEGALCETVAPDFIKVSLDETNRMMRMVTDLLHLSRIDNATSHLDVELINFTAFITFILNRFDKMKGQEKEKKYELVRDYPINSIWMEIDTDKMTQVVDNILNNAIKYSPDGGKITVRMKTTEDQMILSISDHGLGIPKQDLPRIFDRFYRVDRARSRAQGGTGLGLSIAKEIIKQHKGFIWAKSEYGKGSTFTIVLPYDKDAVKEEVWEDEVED
SMILES,MIC (Staphylococcus aureus; [2]) [µg/mL],IC50 (E. coli PhoR (PhoR^E); IC50 PhoR^E) [mM],MIC (Escherichia coli; strain CFT 073) [µg/mL],"MIC [1, 3] [µg/mL]",IC50 (S. pneumoniae WalK; IC50 WalK) [mM],IC50 (S. aureus PhoR (PhoR^S); IC50 PhoR^S) [mM],further results
CC(=O)Nc1cccc(C=Cc2ccc([N+](=O)[O-])cc2)c1 [S1.11],> 500,< 2,> 500,> 500,,,IC50 (S. aureus PhoR (PhoR^S); read-out: IC50 PhoR^S): < 2 mM; inhibition at 2000 µM (S. aureus PhoR (PhoR^S)): > 75%; inhibition at 2000 µM (E. coli PhoR (PhoR^E)): > 75%
Brc1ccc(C2=CSC3=NCCN23)cc1 [F1.7],> 500,> 2,> 500,> 500,> 2,,
Cc1ccc(-c2csc(N)n2)cc1 [F1.3],> 500,> 2,> 500,500,> 2,,"MBC ([1]; DSM20044, strain DSM 20044): 500 µg/mL"
COc1cc(NCc2ccccc2)ccc1NC(C)=O [S1.18],> 500,> 2,> 500,> 500,,> 2,
COc1ccc(-c2csc(N)n2)cc1OC [F1.9],> 500,> 2,> 500,> 500,> 2,,
CC(=O)Nc1cccc(OCOc2ccc([N+](=O)[O-])cc2)c1 [S1.16],> 500,> 2,> 500,> 500,,> 2,
CC(=O)Nc1ccc(NC(=O)c2cccc(F)c2)cc1 [S1.3],> 500,> 2,> 500,> 500,,> 2,
CC(C)(C)c1ccc(OCc2c[nH]cn2)cc1 [F1.10],> 500,> 2,> 500,> 500,> 2,,
CC(=O)Nc1cccc(OCc2cccc([N+](=O)[O-])c2)c1 [S1.17],> 500,> 2,> 500,> 500,,> 2,
O=c1c2ccccc2[nH]c2ccc(O)cc12 [F2.2],> 500,< 2,> 500,> 500,> 2,,inhibition at 2000 µM (E. coli PhoR (PhoR^E)): > 50%
CC(=O)Nc1ccc[n+](CC(=O)c2ccc(F)cc2)c1 [S1.5],> 500,> 2,> 500,> 500,,> 2,
Nc1nnc(-c2ccc(Br)cc2)o1 [F1.5],> 500,> 2,> 500,> 500,> 2,,
Nc1nc(-c2ccc(Cl)cc2)cs1 [F1.2],> 500,> 2,> 500,> 500,> 2,,
CCc1ccc2[nH]c3ccccc3c2c1 [F2.9],> 500,< 2,> 500,> 500,> 2,,"MBC (Staphylococcus aureus; DSM20231, strain DSM 20231, read-out: MBC S. aureus DSM 20231): > 500 µg/mL; inhibition at 2000 µM (E. coli PhoR (PhoR^E)): > 50%"
c1ccc2c(c1)[nH]c1ccccc12 [F2.5],,,,,,,"IC50 (S. pneumoniae WalK; read-out: IC50 WalK): > 2 mM; MIC (Staphylococcus aureus; DSM20231, read-out: MIC S. aureus DSM 20231): > 500 µg/mL; IC50 (E. coli PhoR (PhoR^E); read-out: IC50 PhoR^E): > 2 mM; MIC (Escherichia coli): > 500 µg/mL; MIC ([1]; DSM20044, read-out: MIC S. epidermidis DSM 20044): > 500 µg/mL"
CC(=O)Nc1cccc(OCc2ccc([N+](=O)[O-])cc2)c1 [S1.8],> 500,> 2,> 500,> 500,,> 2,
CC(=O)Nc1ccc(-c2ccc(F)cc2)cc1 [S1.2],> 500,< 2,> 500,> 500,,,IC50 (S. aureus PhoR (PhoR^S); read-out: IC50 PhoR^S): < 2 mM; inhibition at 2000 µM (S. aureus PhoR (PhoR^S)): > 75%; inhibition at 2000 µM (E. coli PhoR (PhoR^E)): > 75%
